Consider 13 compounds from patent publication US20250304596A1, “PYRAZINE DERIVATIVES AND USES THEREOF” (FOGHORN THERAPEUTICS INC., priority 2022, published 2025).

SMILES strings stand for the structures.

In experiment [1] the target is T1, HiBit-BRG1 fusion protein (Homo sapiens, UniProt P51532).
T1 construct: expressed in transfected cells
The experiment can be described thus: HiBiT-BRG1 cell-based degradation assay (Nano-Glo HiBiT Lytic Detection, 24 h). The following applies: stable HeLa cell line expressing HiBit-BRG1 and LgBit; for Dmax: read-out: BRG1 HiBit Degradation Maximum (%); for DC50: read-out: BRMG1 HiBit Degradation IC50. The essentials:
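Degradation read by lytic NanoBiT luminescence after 24 h compound exposure of a stable HiBit-BRG1/LgBit HeLa line. Ten-point, 3-fold series in duplicate, top final dose 30 μM; DMSO and 2 μM standard degrader define 0% and 100% degradation.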
(HiBiT is a short tag that completes a luciferase, so light tracks the accessible tagged protein.)

The next experiment deals with T2, HiBit-BRM fusion protein (Homo sapiens, UniProt P51531).
T2 construct: expressed in transfected cells
T2 sequence (P51531 whole entry, the tested form may be a part): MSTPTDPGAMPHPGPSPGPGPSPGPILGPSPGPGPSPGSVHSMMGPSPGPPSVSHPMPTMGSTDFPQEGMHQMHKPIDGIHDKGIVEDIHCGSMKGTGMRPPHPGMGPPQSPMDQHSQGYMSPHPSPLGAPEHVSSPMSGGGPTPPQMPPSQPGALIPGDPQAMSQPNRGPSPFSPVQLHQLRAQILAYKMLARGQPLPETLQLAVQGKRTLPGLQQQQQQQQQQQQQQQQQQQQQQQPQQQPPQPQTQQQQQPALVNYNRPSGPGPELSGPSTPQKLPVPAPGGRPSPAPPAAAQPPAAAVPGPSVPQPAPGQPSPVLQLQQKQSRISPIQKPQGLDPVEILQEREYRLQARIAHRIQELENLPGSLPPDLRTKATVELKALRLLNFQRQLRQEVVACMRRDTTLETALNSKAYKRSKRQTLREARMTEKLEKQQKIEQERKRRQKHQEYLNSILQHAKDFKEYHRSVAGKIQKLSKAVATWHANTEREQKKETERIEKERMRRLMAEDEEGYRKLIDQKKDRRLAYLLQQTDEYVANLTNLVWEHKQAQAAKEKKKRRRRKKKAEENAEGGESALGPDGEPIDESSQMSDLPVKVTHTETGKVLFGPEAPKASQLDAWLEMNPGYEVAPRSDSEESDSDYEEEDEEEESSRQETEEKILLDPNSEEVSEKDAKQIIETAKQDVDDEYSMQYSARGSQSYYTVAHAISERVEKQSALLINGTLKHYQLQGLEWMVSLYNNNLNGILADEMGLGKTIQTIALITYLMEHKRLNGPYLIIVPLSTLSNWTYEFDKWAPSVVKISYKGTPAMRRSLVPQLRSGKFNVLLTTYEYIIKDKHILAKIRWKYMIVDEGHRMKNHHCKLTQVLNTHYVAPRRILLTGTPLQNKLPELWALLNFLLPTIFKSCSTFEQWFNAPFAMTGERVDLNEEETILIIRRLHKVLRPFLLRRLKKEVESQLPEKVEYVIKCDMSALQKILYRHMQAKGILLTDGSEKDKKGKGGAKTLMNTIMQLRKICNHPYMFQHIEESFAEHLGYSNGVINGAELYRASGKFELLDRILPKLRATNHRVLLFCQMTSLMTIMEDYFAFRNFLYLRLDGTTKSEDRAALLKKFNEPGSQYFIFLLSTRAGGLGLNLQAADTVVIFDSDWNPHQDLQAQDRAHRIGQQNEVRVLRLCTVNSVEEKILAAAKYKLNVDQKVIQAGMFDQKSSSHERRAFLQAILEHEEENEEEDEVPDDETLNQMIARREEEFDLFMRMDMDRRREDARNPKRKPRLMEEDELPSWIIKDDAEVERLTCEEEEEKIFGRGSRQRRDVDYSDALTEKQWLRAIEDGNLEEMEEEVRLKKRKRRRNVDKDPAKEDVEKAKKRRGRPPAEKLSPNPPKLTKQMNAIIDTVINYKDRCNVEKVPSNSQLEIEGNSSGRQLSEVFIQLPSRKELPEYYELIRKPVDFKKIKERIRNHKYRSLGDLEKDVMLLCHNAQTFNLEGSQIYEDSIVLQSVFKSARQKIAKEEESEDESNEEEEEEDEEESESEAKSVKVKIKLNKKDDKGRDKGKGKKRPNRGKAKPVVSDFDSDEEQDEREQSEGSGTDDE
The experiment can be described thus: HiBiT-BRM cell-based degradation assay (Nano-Glo HiBiT Lytic Detection, 24 h). The following applies: stable HeLa cell line expressing HiBiT-BRM; for DC50: read-out: BRM HiBit Degradation IC50. The method, boiled down: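 Luminescence from LgBiT complementation after lysis measured HiBiT-BRM levels in stably expressing HeLa cells. Compounds were dosed at up to 30 μM final, in 3-fold 10-point dilutions, for 24 h. Percent degradation was scaled between DMSO wells and wells treated with 2 μM standard BRM/BRG1 degrader.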

T1 sequence (P51532 whole entry, the tested form may be a part): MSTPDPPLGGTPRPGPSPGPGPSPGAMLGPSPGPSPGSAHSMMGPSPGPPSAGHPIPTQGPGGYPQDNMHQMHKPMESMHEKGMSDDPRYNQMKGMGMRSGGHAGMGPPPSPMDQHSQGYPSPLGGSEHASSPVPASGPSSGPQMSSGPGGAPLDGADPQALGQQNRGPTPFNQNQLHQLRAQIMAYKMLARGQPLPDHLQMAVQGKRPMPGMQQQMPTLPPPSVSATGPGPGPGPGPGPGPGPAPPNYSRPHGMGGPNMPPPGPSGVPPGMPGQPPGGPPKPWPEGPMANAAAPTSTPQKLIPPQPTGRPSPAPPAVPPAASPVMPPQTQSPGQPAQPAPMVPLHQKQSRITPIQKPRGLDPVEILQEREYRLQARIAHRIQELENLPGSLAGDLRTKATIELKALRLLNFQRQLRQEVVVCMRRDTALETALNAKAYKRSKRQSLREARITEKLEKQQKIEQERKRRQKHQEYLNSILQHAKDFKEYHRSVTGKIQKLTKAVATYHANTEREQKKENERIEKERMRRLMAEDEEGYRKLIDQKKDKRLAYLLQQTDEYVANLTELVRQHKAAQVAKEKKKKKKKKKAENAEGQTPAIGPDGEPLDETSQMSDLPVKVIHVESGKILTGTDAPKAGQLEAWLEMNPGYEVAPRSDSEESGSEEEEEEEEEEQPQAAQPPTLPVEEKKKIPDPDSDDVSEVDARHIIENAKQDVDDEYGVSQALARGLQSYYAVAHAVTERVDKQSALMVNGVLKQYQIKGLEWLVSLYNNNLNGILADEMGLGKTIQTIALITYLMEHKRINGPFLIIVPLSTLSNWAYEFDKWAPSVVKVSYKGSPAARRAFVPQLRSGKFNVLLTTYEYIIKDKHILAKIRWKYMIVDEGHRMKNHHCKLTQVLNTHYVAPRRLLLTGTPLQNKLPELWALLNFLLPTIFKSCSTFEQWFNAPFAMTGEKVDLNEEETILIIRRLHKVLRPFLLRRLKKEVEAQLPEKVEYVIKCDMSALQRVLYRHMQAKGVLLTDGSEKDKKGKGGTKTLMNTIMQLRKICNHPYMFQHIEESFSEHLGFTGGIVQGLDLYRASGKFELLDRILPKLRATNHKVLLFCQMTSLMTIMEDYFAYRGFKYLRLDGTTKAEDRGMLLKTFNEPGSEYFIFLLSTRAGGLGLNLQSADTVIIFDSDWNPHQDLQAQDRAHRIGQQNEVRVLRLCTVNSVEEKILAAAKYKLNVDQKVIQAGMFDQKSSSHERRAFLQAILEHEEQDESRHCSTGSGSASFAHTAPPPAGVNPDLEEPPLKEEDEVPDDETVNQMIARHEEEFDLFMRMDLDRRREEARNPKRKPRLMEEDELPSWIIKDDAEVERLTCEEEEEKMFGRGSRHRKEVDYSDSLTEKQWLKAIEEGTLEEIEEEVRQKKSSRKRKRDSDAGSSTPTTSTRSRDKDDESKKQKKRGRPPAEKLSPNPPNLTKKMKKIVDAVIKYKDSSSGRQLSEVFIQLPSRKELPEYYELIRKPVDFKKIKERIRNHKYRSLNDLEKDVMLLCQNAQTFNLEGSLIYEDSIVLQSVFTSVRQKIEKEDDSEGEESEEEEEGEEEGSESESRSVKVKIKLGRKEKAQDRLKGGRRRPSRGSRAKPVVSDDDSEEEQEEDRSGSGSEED

Regarding `Cc1ncsc1-c1ccc([C@H](C)NC(=O)[C@@H]2C[C@@H](O)CN2C(=O)[C@@H](c2cc(-c3cnc(N4CCC(c5sc6nnc(-c7ccccc7O)cc6c5C)CC4)nc3)no2)C(C)C)cc1` (single isomer, unassigned) [Compound 66], in experiment [1], the Dmax was less than 50% and the DC50 was greater than 1000 nM. Also, at HiBit-BRM fusion protein, the “BRM HiBit Degradation Maximum (%)” value is recorded as “A (“A” indicates maximum degradation ≥75%)” and the DC50 was less than 10 nM.

On to `Cc1ncsc1-c1ccc([C@H](C)NC(=O)[C@@H]2C[C@@H](O)CN2C(=O)[C@@H](c2cc(-c3cnc(N4CC[C@H](c5cc6nnc(-c7ccccc7O)cc6s5)C4)nc3)no2)C(C)C)cc1` [Compound 91, (2S,4R)-4-hydroxy-1-((R)-2-(3-(2-((S)-3-(3-(2-hydroxyphenyl)thieno[3,2-c]pyridazin-6-yl)pyrrolidin-1-yl)pyrimidin-5-yl)isoxazol-5-yl)-3-methylbutanoyl)-N-((S)-1-(4-(4-methylthiazol-5-yl)phenyl)ethyl)pyrrolidine-2-carboxamide], for which the Dmax in experiment [1] is greater than 50%. At HiBit-BRM fusion protein, the “BRM HiBit Degradation Maximum (%)” value is reported as “A (“A” indicates maximum degradation ≥75%)” and the DC50 is less than 10 nM.

For the compound `Cc1ncsc1-c1ccc([C@H](C)NC(=O)[C@@H]2C[C@@H](O)CN2C(=O)[C@@H](c2cc(N3CCC4(CC[C@H](c5sc6nnc(-c7ccccc7O)cc6c5C)C4)CC3)no2)C(C)C)cc1` [Compound 81, (2S,4R)-4-hydroxy-1-((R)-2-(3-((S)-2-(3-(2-hydroxyphenyl)-5-methylthieno[2,3-c]pyridazin-6-yl)-8-azaspiro[4.5]decan-8-yl)isoxazol-5-yl)-3-methylbutanoyl)-N-((S)-1-(4-(4-methylthiazol-5-yl)phenyl)ethyl)pyrrolidine-2-carboxamide], in experiment [1], the Dmax is less than 50%. Moreover, at HiBit-BRM fusion protein, the “BRM HiBit Degradation Maximum (%)” value was “A (“A” indicates maximum degradation ≥75%)” and the DC50 is greater than 10 nM.

On to `Cc1ncsc1-c1ccc([C@H](C)NC(=O)[C@@H]2C[C@@H](O)CN2C(=O)[C@@H](c2cc(N3CC[C@@H](c4cc5nnc(-c6ccccc6O)cc5s4)C3)no2)C(C)C)cc1` [Compound 72, (2S,4R)-4-hydroxy-1-((R)-2-(3-((R)-3-(3-(2-hydroxyphenyl)thieno[3,2-c]pyridazin-6-yl)pyrrolidin-1-yl)isoxazol-5-yl)-3-methylbutanoyl)-N-((S)-1-(4-(4-methylthiazol-5-yl)phenyl)ethyl)pyrrolidine-2-carboxamide], for which the Dmax in experiment [1] was less than 50%. In addition, on HiBit-BRM fusion protein, the “BRM HiBit Degradation Maximum (%)” value was “A (“A” indicates maximum degradation ≥75%)” and the DC50 was less than 10 nM.

Consider `Cc1ncsc1-c1ccc([C@H](C)NC(=O)[C@@H]2C[C@@H](O)CN2C(=O)[C@@H](c2cc(-c3ccnc(N4CCC(c5sc6nnc(-c7ccccc7O)cc6c5C)CC4)n3)no2)C(C)C)cc1` [Compound 58, (2S,4R)-4-hydroxy-1-((R)-2-(3-(2-(4-(3-(2-hydroxyphenyl)-5-methylthieno[2,3-c]pyridazin-6-yl)piperidin-1-yl)pyrimidin-4-yl)isoxazol-5-yl)-3-methylbutanoyl)-N-((S)-1-(4-(4-methylthiazol-5-yl)phenyl)ethyl)pyrrolidine-2-carboxamide], for which, in experiment [1], the Dmax was greater than 75% and the DC50 was greater than 10 nM. For the same compound, at HiBit-BRM fusion protein, the “BRM HiBit Degradation Maximum (%)” value is “A (“A” indicates maximum degradation ≥75%)” and the DC50 is less than 10 nM.

Regarding `Cc1ncsc1-c1ccc([C@H](C)NC(=O)[C@@H]2C[C@@H](O)CN2C(=O)[C@@H](c2cc(N3C[C@@H]4[C@H](C3)[C@H]4c3cc4nnc(-c5ccccc5O)cc4s3)no2)C(C)C)cc1` [Compound 70, (2S,4R)-4-hydroxy-1-((2R)-2-(3-((1R,5S)-6-(3-(2-hydroxyphenyl)thieno[3,2-c]pyridazin-6-yl)-3-azabicyclo[3.1.0]hexan-3-yl)isoxazol-5-yl)-3-methylbutanoyl)-N-((S)-1-(4-(4-methylthiazol-5-yl)phenyl)ethyl)pyrrolidine-2-carboxamide], in experiment [1], the Dmax was less than 50%. Further, on HiBit-BRM fusion protein, the “BRM HiBit Degradation Maximum (%)” value is “B (“B” indicates maximum degradation ≥50%)” and the DC50 was less than 10 nM.

With `Cc1ncsc1-c1ccc([C@H](C)NC(=O)[C@@H]2C[C@@H](O)CN2C(=O)[C@@H](c2cc(-c3ccc(N4CCC(c5cc6cc(-c7ccccc7O)nnc6s5)CC4)nn3)no2)C(C)C)cc1` [Compound 33, (2S,4R)-4-hydroxy-1-((R)-2-(3-(6-(4-(3-(2-hydroxyphenyl)thieno[2,3-c]pyridazin-6-yl)piperidin-1-yl)pyridazin-3-yl)isoxazol-5-yl)-3-methylbutanoyl)-N-((S)-1-(4-(4-methylthiazol-5-yl)phenyl)ethyl)pyrrolidine-2-carboxamide], in experiment [1], the Dmax was less than 50% and the DC50 is greater than 1000 nM. Also, on HiBit-BRM fusion protein, the “BRM HiBit Degradation Maximum (%)” value is recorded as “A (“A” indicates maximum degradation ≥75%)” and the DC50 was greater than 10 nM.

As for `Cc1ncsc1-c1ccc([C@H](C)NC(=O)[C@@H]2C[C@@H](O)CN2C(=O)[C@@H](c2cc(N3C[C@@H]4[C@H](C3)[C@H]4c3sc4nnc(-c5ccccc5O)cc4c3C)no2)C(C)C)cc1` [Compound 16, (2S,4R)-4-hydroxy-1-((R)-2-(3-((1R,5S,6R)-6-(3-(2-hydroxyphenyl)-5-methylthieno[2,3-c]pyridazin-6-yl)-3-azabicyclo[3.1.0]hexan-3-yl)isoxazol-5-yl)-3-methylbutanoyl)-N-((S)-1-(4-(4-methylthiazol-5-yl)phenyl)ethyl)pyrrolidine-2-carboxamide], in experiment [1], the Dmax is greater than 50% and the DC50 is greater than 10 nM. Further, at HiBit-BRM fusion protein, the “BRM HiBit Degradation Maximum (%)” value is “A (“A” indicates maximum degradation ≥75%)” and the DC50 is less than 10 nM.

With `Cc1ncsc1-c1ccc([C@H](C)NC(=O)[C@@H]2C[C@@H](O)CN2C(=O)[C@@H](c2cc(-c3cnc(N4CCC(c5cc6nnc(-c7ccccc7O)cc6s5)CC4)nc3)no2)C(C)C)cc1` [Compound 55, (2S,4R)-4-hydroxy-1-((R)-2-(3-(2-(4-(3-(2-hydroxyphenyl)thieno[3,2-c]pyridazin-6-yl)piperidin-1-yl)pyrimidin-5-yl)isoxazol-5-yl)-3-methylbutanoyl)-N-((S)-1-(4-(4-methylthiazol-5-yl)phenyl)ethyl)pyrrolidine-2-carboxamide], in experiment [1], the Dmax is less than 50% and the DC50 was greater than 1000 nM. In addition, on HiBit-BRM fusion protein, the “BRM HiBit Degradation Maximum (%)” value was “A (“A” indicates maximum degradation ≥75%)” and the DC50 is less than 10 nM.

Consider `Cc1ncsc1-c1ccc([C@H](C)NC(=O)[C@@H]2C[C@@H](O)CN2C(=O)[C@@H](c2cc(-c3cnc(N4CC[C@@H](c5sc6nnc(-c7ccccc7O)cc6c5C)C4)nc3)no2)C(C)C)cc1` [Compound 47, (2S,4R)-4-hydroxy-1-((R)-2-(3-(2-((R)-3-(3-(2-hydroxyphenyl)-5-methylthieno[2,3-c]pyridazin-6-yl)pyrrolidin-1-yl)pyrimidin-5-yl)isoxazol-5-yl)-3-methylbutanoyl)-N-((S)-1-(4-(4-methylthiazol-5-yl)phenyl)ethyl)pyrrolidine-2-carboxamide], for which, in experiment [1], the Dmax is greater than 75% and the DC50 was less than 10 nM. On HiBit-BRM fusion protein, the “BRM HiBit Degradation Maximum (%)” value is given as “A (“A” indicates maximum degradation ≥75%)” and the DC50 was greater than 10 nM.

As to `Cc1cc(-c2cc([C@H](C(=O)N3C[C@H](O)C[C@H]3C(=O)N[C@@H](C)c3ccc(-c4scnc4C)cc3)C(C)C)on2)cnc1N1CCC(c2sc3nnc(-c4ccccc4O)cc3c2C)CC1` [Compound 43, (2S,4R)-4-hydroxy-1-((R)-2-(3-(6-(4-(3-(2-hydroxyphenyl)-5-methylthieno[2,3-c]pyridazin-6-yl)piperidin-1-yl)-5-methylpyridin-3-yl)isoxazol-5-yl)-3-methylbutanoyl)-N-((S)-1-(4-(4-methylthiazol-5-yl)phenyl)ethyl)pyrrolidine-2-carboxamide], in experiment [1], the Dmax is less than 50% and the DC50 is greater than 1000 nM. On HiBit-BRM fusion protein, the “BRM HiBit Degradation Maximum (%)” value is “A (“A” indicates maximum degradation ≥75%)” and the DC50 is less than 10 nM.

Turning to `Cc1ncsc1-c1ccc([C@H](C)NC(=O)[C@@H]2C[C@@H](O)CN2C(=O)[C@@H](c2cc(N3CC4(CC(c5sc6nnc(-c7ccccc7O)cc6c5C5CC5)C4)C3)no2)C(C)C)cc1` [Compound 87, (2S,4R)-1-[(2R)-2-(3-{6-[5-cyclopropyl-3-(2-hydroxyphenyl)thieno[2,3-c]pyridazin-6-yl]-2-azaspiro[3.3]heptan-2-yl}-1,2-oxazol-5-yl)-3-methylbutanoyl]-4-hydroxy-N-[(1S)-1-[4-(4-methyl-1,3-thiazol-5-yl)phenyl]ethyl]pyrrolidine-2-carboxamide], in experiment [1], the Dmax is less than 50%. Further, on HiBit-BRM fusion protein, the “BRM HiBit Degradation Maximum (%)” value is recorded as “A (“A” indicates maximum degradation ≥75%)” and the DC50 was less than 10 nM.

As for `Cc1ncsc1-c1ccc([C@H](C)NC(=O)[C@@H]2C[C@@H](O)CN2C(=O)[C@@H](c2cc(-c3ccnc(N4CCC(c5sc6nnc(-c7ccccc7O)cc6c5C)CC4)c3)no2)C(C)C)cc1` [Compound 10, (2S,4R)-4-hydroxy-1-((R)-2-(3-(2-(4-(3-(2-hydroxyphenyl)-5-methylthieno[2,3-c]pyridazin-6-yl)piperidin-1-yl)pyridin-4-yl)isoxazol-5-yl)-3-methylbutanoyl)-N-((S)-1-(4-(4-methylthiazol-5-yl)phenyl)ethyl)pyrrolidine-2-carboxamide], in experiment [1], the Dmax was greater than 75% and the DC50 is greater than 10 nM. Moreover, at HiBit-BRM fusion protein, the “BRM HiBit Degradation Maximum (%)” value is on record as “A (“A” indicates maximum degradation ≥75%)” and the DC50 was greater than 10 nM.
